# Experimental data taken from US20250115581A1, “SUBSTITUTED PIPERIDINES AS CK1A DEGRADERS” (Monte Rosa Therapeutics, Inc., priority 2022, published 2025).
# How the values were obtained:
# CK1α = target: T1, CK1α (Homo sapiens, UniProt P48729+Q96SW2); experiment: CK1α NanoBit Assay (HiBiT-tagged CSNK1A1 in HEK293 cells, luminescence); assay type: cell-based; conditions: 24 h
# T1 construct: HEK293 clonal lines with CRISPR KI HiBiT tag on CSNK1A1; host or cells: HEK293 clonal line, CRISPR knock-in HiBiT at the CSNK1A1 locus, stably expressing LgBiT
# T1 sequence (P48729 whole entry): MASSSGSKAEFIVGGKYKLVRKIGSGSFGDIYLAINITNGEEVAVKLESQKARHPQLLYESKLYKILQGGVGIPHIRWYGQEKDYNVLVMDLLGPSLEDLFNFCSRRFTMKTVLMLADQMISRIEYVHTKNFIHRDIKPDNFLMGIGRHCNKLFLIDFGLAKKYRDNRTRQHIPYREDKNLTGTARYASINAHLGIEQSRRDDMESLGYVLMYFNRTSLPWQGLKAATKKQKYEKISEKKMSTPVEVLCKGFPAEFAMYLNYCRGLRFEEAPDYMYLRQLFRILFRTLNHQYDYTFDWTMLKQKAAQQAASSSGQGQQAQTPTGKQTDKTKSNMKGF
# T1 sequence (Q96SW2 whole entry): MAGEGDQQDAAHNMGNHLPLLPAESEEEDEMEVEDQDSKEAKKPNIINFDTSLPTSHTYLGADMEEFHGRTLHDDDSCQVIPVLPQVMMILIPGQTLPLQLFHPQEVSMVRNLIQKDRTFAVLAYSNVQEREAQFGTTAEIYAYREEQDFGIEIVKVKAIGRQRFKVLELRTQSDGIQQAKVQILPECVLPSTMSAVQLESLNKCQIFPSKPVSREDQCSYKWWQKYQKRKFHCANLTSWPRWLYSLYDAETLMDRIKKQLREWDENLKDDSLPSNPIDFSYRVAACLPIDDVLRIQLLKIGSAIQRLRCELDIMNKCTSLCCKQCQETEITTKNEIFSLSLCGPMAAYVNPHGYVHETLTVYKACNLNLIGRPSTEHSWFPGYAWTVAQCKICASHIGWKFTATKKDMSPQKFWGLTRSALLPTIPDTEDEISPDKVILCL
# T1 sequence (Q16531 whole entry partner): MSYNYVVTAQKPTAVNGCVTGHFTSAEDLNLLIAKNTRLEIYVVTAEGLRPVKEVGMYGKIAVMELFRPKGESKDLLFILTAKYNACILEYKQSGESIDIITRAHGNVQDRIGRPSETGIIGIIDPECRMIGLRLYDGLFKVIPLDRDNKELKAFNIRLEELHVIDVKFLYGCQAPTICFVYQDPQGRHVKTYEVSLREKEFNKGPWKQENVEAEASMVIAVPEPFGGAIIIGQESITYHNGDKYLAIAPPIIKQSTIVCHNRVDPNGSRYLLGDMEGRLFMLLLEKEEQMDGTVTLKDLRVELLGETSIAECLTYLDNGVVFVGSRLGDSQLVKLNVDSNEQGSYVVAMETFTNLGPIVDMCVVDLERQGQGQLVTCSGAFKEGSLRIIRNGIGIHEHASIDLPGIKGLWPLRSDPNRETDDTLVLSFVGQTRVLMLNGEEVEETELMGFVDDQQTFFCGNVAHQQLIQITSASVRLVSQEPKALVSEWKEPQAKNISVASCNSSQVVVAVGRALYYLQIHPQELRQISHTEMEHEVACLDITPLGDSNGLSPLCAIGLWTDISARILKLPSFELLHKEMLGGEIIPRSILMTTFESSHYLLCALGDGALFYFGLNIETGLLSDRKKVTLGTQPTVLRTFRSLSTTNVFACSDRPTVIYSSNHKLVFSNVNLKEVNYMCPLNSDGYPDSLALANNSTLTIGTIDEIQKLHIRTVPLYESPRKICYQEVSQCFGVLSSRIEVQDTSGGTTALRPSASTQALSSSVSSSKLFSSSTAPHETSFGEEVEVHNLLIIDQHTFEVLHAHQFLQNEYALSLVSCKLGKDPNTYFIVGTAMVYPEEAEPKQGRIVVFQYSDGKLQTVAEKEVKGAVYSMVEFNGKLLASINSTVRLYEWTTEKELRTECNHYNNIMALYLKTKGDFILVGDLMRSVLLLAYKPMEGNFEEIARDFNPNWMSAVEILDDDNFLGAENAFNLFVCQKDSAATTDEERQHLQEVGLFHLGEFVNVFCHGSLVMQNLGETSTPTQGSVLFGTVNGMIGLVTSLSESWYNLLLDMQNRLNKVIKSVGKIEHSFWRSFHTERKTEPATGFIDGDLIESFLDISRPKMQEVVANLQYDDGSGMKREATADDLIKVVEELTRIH
# Method: HEK293 clonal lines with CRISPR KI HiBiT tag on CSNK1A1 and stably expressing LgBiT protein were obtained from Promega (Madison, WI). Cells were plated at 5000 cells per well using Multiflo (BioTek) in 384-well white solid bottom plates (Corning, 3570BC) in 25 μl volume in DMEM media (DMEM, high glucose, HEPES, no phenol red (ThermoFisher Scientific, 21063029)) containing 10% FBS (Corning, 35-075-CV), 1% Penicillin/Streptomycin ((ThermoFisher Scientific, 15140-122), and 0.2% Endurazine (Nano-Glo Endurazine Live Cell Substrate (Promega, N2571)). Cells were incubated for 16 hours at 37° C., 5% CO2. Depending on experiment 25 or 75 nL of a compound at 10 mM were added into the plate using an Echo® 650 liquid handler (Labcyte) to achieve final concentration of 10 or 30 μM in wells. Cells were incubated at 37° C., 5% CO2 for 24 hours and then signal was read on a Pherastar FSX using “LUM plus” optic module.
# Data analysis was performed in Scinamic (Scinamic, Cambridge, MA). Luminescence response (R) was calculated by the formula: response=100*(S−N)/(P−N) where S is the signal of the well, N and P the mean negative and positive control values respectively of the same plate. The luminescence response was then fitted in Scinamic using a 3-parameter agonist logistic fit (hillslope=1, EC50>0, top/bottom unconstrained).
# DC50 data are reported in Table 2 for compounds in Table 1. In Table 2 below, According to the code, A represents a DC50 value of ≤0.1 μM, B represents a DC50 value >0.1 μM and ≤1 μM, C represents an DC50 value >1 μM.
# CRBN/DDB1 = CRBN/DDB1 (Homo sapiens, UniProt Q96SW2); experiment: HTRF binding assay (displacement of Cy5-thalidomide probe from CRBN/DDB1); conditions: CRBN/DDB1 2.5 nM, Cy5-Thalidomide 100 nM, 30 min; geometric mean; read-out: HTRF_Thali_Disp_DR_geo_IC50
# CRBN/DDB1, sequence (Q96SW2 whole entry): as the sequence (Q96SW2 whole entry) above
# CRBN/DDB1, sequence (Q16531 whole entry partner): as the sequence (Q16531 whole entry partner) above
# Text: Binding of test compounds to CRBN/DDB1 was monitored in an HTRF assay using 1-[5-({2-[2-(2-{[2-(2,6-dioxopiperidin-3-yl)-1,3-dioxo-2,3-dihydro-1H-isoindol-4-yl]oxy}acetamido)ethoxy]ethyl}carbamoyl)pentyl]-3,3-dimethyl-2-[(1E,3E)-5-[(2E)-1,3,3-trimethyl-5-sulfo-2,3-dihydro-1H-indol-2-ylidene]penta-1,3-dien-1-yl]-3H-indol-1-ium-5-sulfonate as a fluorescent probe. In this assay, compounds displace the fluorescently labeled thalidomide-based probe bound to CRBN and fluorescence is monitored with increasing compound concentration. Assays were conducted in Greiner white 384 well HiBase plates (Cat. No 784075-25) in 10 μL total volume. A one pot detection solution of CRBN/DDB1 (2.5 nM), anti-His Terbium Cryptate Gold (1×, PerkinElmer Cat. #: 61HI2TLB), and Cy5-Thalidomide (100 nM, Tenova Cat.: T52461) was prepared in 20 mM HEPES, 20 mM NaCl, 0.2 mM TCEP, 0.2 mM EDTA, and 0.005% Tween20 was dispensed to each assay plate. Test compounds were stored in dry, ambient temperatures at 10 mM. A 10-point, 1:3 dilution series was prepared from 10 mM stock concentrations in Echo-compatible LDV plates. 10 nL of each compound dilution series was dispensed into assays wells using an Echo 650 (Labcyte inc. USA). 10 nL of 10 mM lenalidomide (Selleckchem Cat no. S1029) was transferred into the active-control wells for the assay and 10 nL of DMSO was transferred into the negative control wells. The assay was then allowed to incubate for 30 min at ambient temperature after transferring the test compounds. Plate measurements were taken on a Pherastar FSX (BMG Labtech, Germany) using the HTRF Red filter (Ex. 337 nm, em1: 620 nm, em2: 665 nm) (Flashes: 50, Integration time: 60-400 μs, Z-height: 10 mm, Ratio-multiplier: 10,000). Analysis, HTRF ratio and IC50 values were derived using KNIME analytics (KNIME Zurich) transformation and fitting within Collaborative Drug Discovery (Collaborative Drug Discovery USA) using a 4-parameter logistic fit. HTRF ratio calculation was performed using the following formula: […]
# where em665 nm represents the measured emission at 665 nm upon excitation at 337 nm and em620 nm the measured emission at 620 nm upon excitation at 337 nm. The 4 parameter logistic fitting model was performed using the following formula: […]
# where Y represents the HTRF ratio response (as defined previously), X the compound concentration in μM, Ymin the minimum response plateau, Ymax the maximum response plateau, IC50 the concentration of […] that gives a response half way between Ymin and Ymax and HillSlope the steepness of the family of curves. No fitting model constraints was applied on Ymin, or Ymax whilst IC50>0 and −0.5>HillSlope>−3 Cheng-Prusoff transformation
# Ki values were derived from the geometric mean of the IC50 values using the Cheng-Prusoff transformation:
# where [L] represents the concentration of fluorescent probe in […], Kd the affinity (binding constant) of the fluorescent probe in units of μM and IC50 the concentration of agonist that gives a response halfway between Ymin and Ymax (as described in 1.2.1)
# Analysis and IC50 values were derived using KNIME analytics (KNIME, Zurich) transformation and fitting within Collaborative Drug Discovery (Collaborative Drug Discovery, USA) as described in 1.2.1. Ki values were derived from the geometric mean of the IC50 values using the Cheng-Prusoff transformation as described in 2.2.2. Data was visualized in GraphPad Prism 8.1.2 (GraphPad, USA) and reported as mean and standard deviation. Microsoft Office Excel 2012 (Redmond, WA) was used for calculation of mean and standard deviation.
# IC50 data are reported in Table 3 for compounds in Table 1. In Table 3 below, According to the code, A represents a IC50 value of ≤0.1 μM, B represents a IC50 value >0.1 μM and ≤1 μM, C represents an IC50 value >1 μM.
DC50 (CK1α) [µM],IC50 (CRBN/DDB1) [nM],Structure (SMILES)
≤ 0.1,100 to 1000,"COCc1cccc(N2C(=O)N(c3ccc4c(c3)CN(C3CCC(=O)NC3=O)C4=O)C[C@H]2C)c1 (stereo partly drawn) [Compound 149, 3-(5-((R)-3-(3-(methoxymethyl)phenyl)-4-methyl-2-oxoimidazolidin-1-yl)-1-oxoisoindolin-2-yl)piperidine-2,6-dione]"
≤ 0.1,100 to 1000,"Cc1ccc(N2CCN(c3ccc4c(c3)CN(C3CCC(=O)NC3=O)C4=O)C2=O)c(C)c1 (centres unmarked) [Compound 150, 3-(5-(3-(2,4-dimethylphenyl)-2-oxoimidazolidin-1-yl)-1-oxoisoindolin-2-yl)piperidine-2,6-dione]"
≤ 0.1,100 to 1000,"Cc1ccc(N2C(=O)N(c3ccc4c(c3)CN(C3CCC(=O)NC3=O)C4=O)C[C@H]2C)cn1 (stereo partly drawn) [Compound 151, 3-(5-((R)-4-methyl-3-(6-methylpyridin-3-yl)-2-oxoimidazolidin-1-yl)-1-oxoisoindolin-2-yl)piperidine-2,6-dione]"
≤ 0.1,100 to 1000,"O=C1CCC(N2Cc3cc(N4CC5(CC5)N(c5ccccc5)C4=O)ccc3C2=O)C(=O)N1 (centres unmarked) [Compound 152, 3-(1-oxo-5-(5-oxo-4-phenyl-4,6-diazaspiro[2.4]heptan-6-yl)isoindolin-2-yl)piperidine-2,6-dione]"
0.1 to 1,100 to 1000,"O=C1CCC(N2Cc3cc(N4CCN(C5CC6(CCC6)C5)C4=O)ccc3C2=O)C(=O)N1 (centres unmarked) [Compound 153, 3-(1-oxo-5-(2-oxo-3-(spiro[3.3]heptan-2-yl)imidazolidin-1-yl)isoindolin-2-yl)piperidine-2,6-dione]"
0.1 to 1,100 to 1000,"CC(c1ccccc1)N1CCN(c2ccc3c(c2)CN(C2CCC(=O)NC2=O)C3=O)C1=O (centres unmarked) [Compound 154, 3-(1-oxo-5-(2-oxo-3-(1-phenylethyl)imidazolidin-1-yl)isoindolin-2-yl)piperidine-2,6-dione]"
0.1 to 1,100 to 1000,"Cc1ccc(N2C(=O)N(c3ccc4c(c3)CN(C3CCC(=O)NC3=O)C4=O)C[C@@H]2C)cn1 (stereo partly drawn) [Compound 155, 3-(5-((S)-4-methyl-3-(6-methylpyridin-3-yl)-2-oxoimidazolidin-1-yl)-1-oxoisoindolin-2-yl)piperidine-2,6-dione]"
0.1 to 1,100 to 1000,"Cc1ccc(N2C(=O)N(c3ccc4c(c3)CN(C3CCC(=O)NC3=O)C4=O)C[C@H]2C)nc1 (stereo partly drawn) [Compound 156, 3-(5-((R)-4-methyl-3-(5-methylpyridin-2-yl)-2-oxoimidazolidin-1-yl)-1-oxoisoindolin-2-yl)piperidine-2,6-dione]"
0.1 to 1,100 to 1000,"COC[C@H]1CN(c2ccc3c(c2)CN(C2CCC(=O)NC2=O)C3=O)C(=O)N1c1ccc(C)cc1 (stereo partly drawn) [Compound 157, 3-(5-((R)-4-(methoxymethyl)-2-oxo-3-(p-tolyl)imidazolidin-1-yl)-1-oxoisoindolin-2-yl)piperidine-2,6-dione]"
0.1 to 1,100 to 1000,"Cc1ccc(N2C(=O)N(c3ccc4c(c3)CN(C3CCC(=O)NC3=O)C4=O)C[C@@H]2C(F)F)cc1 (stereo partly drawn) [Compound 158, 3-(5-((R)-4-(difluoromethyl)-2-oxo-3-(p-tolyl)imidazolidin-1-yl)-1-oxoisoindolin-2-yl)piperidine-2,6-dione]"
0.1 to 1,> 1000,"O=C1CCC(N2Cc3cc(N4CCN(C5CCC5)C4=O)ccc3C2=O)C(=O)N1 (centres unmarked) [Compound 159, 3-(5-(3-cyclobutyl-2-oxoimidazolidin-1-yl)-1-oxoisoindolin-2-yl)piperidine-2,6-dione]"
0.1 to 1,100 to 1000,"O=C1CCC(N2Cc3cc(N4CCN(C5C6CCCC65)C4=O)ccc3C2=O)C(=O)N1 (centres unmarked) [Compound 160, 3-(5-(3-(bicyclo[3.1.0]hexan-6-yl)-2-oxoimidazolidin-1-yl)-1-oxoisoindolin-2-yl)piperidine-2,6-dione]"
0.1 to 1,100 to 1000,"C[C@@H]1CN(c2ccc3c(c2)CN(C2CCC(=O)NC2=O)C3=O)C(=O)N1C1CCOC1 (stereo partly drawn) [Compound 161, 3-(5-((4R)-4-methyl-2-oxo-3-(tetrahydrofuran-3-yl)imidazolidin-1-yl)-1-oxoisoindolin-2-yl)piperidine-2,6-dione]"
0.1 to 1,100 to 1000,"O=C1CCC(N2Cc3cc(N4CCN(C5CCOC5)C4=O)ccc3C2=O)C(=O)N1 (centres unmarked) [Compound 162, 3-(1-oxo-5-(2-oxo-3-(tetrahydrofuran-3-yl)imidazolidin-1-yl)isoindolin-2-yl)piperidine-2,6-dione]"
0.1 to 1,100 to 1000,"CN1CCN(c2ccc(N3CCN(c4ccc5c(c4)CN(C4CCC(=O)NC4=O)C5=O)C3=O)cc2)CC1 (centres unmarked) [Compound 163, 3-(5-(3-(4-(4-methylpiperazin-1-yl)phenyl)-2-oxoimidazolidin-1-yl)-1-oxoisoindolin-2-yl)piperidine-2,6-dione]"
0.1 to 1,100 to 1000,"O=C1CCC(N2Cc3cc(N4CCN(C5CC5)C4=O)ccc3C2=O)C(=O)N1 (centres unmarked) [Compound 164, 3-[5-(3-cyclopropyl-2-oxo-imidazolidin-1-yl)-1-oxo-isoindolin-2-yl]piperidine-2,6-dione]"
0.1 to 1,100 to 1000,"CN1CCN(c2cccc(N3CCN(c4ccc5c(c4)CN(C4CCC(=O)NC4=O)C5=O)C3=O)c2)CC1 (centres unmarked) [Compound 165, 3-(5-(3-(3-(4-methylpiperazin-1-yl)phenyl)-2-oxoimidazolidin-1-yl)-1-oxoisoindolin-2-yl)piperidine-2,6-dione]"
0.1 to 1,100 to 1000,"COCc1cc(C)ccc1N1CCN(c2ccc3c(c2)CN(C2CCC(=O)NC2=O)C3=O)C1=O (centres unmarked) [Compound 166, 3-(5-(3-(2-(methoxymethyl)-4-methylphenyl)-2-oxoimidazolidin-1-yl)-1-oxoisoindolin-2-yl)piperidine-2,6-dione]"
0.1 to 1,100 to 1000,"Cc1ccccc1N1C(=O)N(c2ccc3c(c2)CN(C2CCC(=O)NC2=O)C3=O)C[C@H]1C (stereo partly drawn) [Compound 167, 3-(5-((R)-4-methyl-2-oxo-3-(o-tolyl)imidazolidin-1-yl)-1-oxoisoindolin-2-yl)piperidine-2,6-dione]"
